Reference: the NIST ThermoML archive (doi:10.1021/acs.jced.8b00157)

Assay: an = ratio of the nth substance listed
Conditions: 100 kPa, Liquid, Buoyancy - hydrostatic balance

[F][Al]([F])[F] [aluminum fluoride] + [F-].[K+]
mass density [kg/m3]
Conditions	a2 = 1.3	a2 = 1.5
1068.5 K	1772	–
1068.7 K	–	1790
1069.1 K	–	1790
1069.3 K	1772	–
1069.4 K	1771	–
1069.6 K	1771	1790
1069.9 K	–	1789
1070.1 K	1771	–
1070.2 K	–	1789
1070.5 K	1771	–
1070.7 K	–	1788
1071.1 K	–	1788
1071.2 K	1770	–
1071.3 K	1770	–
1071.4 K	–	1788
1071.9 K	1769	1787
1072 K	1769	–
1072.3 K	–	1787
1072.6 K	1768	–
1072.7 K	1768	1787
1073 K	–	1787
1073.4 K	1768	1787
1073.7 K	–	1786
1073.8 K	1767	–
1073.9 K	1767	–
1074.1 K	–	1786
1074.5 K	–	1786
1074.7 K	1766	–
1074.9 K	–	1786
1075.2 K	–	1785
1075.3 K	1766	–
1075.4 K	–	1785
1075.5 K	1766	–
1075.6 K	–	1784
1076 K	1765	–
1076.2 K	–	1784
1076.4 K	1765	–
1076.5 K	1765	–
1076.6 K	–	1784
1076.7 K	1765	–
1077 K	–	1784
1077.3 K	–	1783
1077.4 K	1763	–
1077.7 K	–	1783
1078.1 K	–	1783
1078.2 K	1762	–
1078.3 K	1762	1782
1078.4 K	1761	–
1078.7 K	–	1782
1079.1 K	1761	1782
1079.4 K	–	1782
1079.5 K	1760	–
1079.7 K	1760	1781
1080.2 K	–	1781
1080.5 K	–	1780
1080.7 K	1760	–
1080.8 K	1759	–
1081 K	–	1780
1081.2 K	1759	–
1081.3 K	–	1780
1081.4 K	1759	–
1081.6 K	1758	–
1081.7 K	1757	–
1081.8 K	–	1780
1082.1 K	–	1779
1082.4 K	1758	–
1082.5 K	–	1779
1082.7 K	1757	–
1082.8 K	1757	1779
1083.2 K	–	1779
1083.6 K	–	1778
1083.9 K	1756	1778
1084.1 K	1756	–
1084.3 K	–	1778
1084.4 K	1756	–
1084.8 K	–	1778
1084.9 K	1756	–
1085.1 K	–	1777
1085.4 K	1755	–
1085.5 K	–	1777
1085.6 K	1755	–
1085.9 K	–	1776
1086.2 K	1754	–
1086.4 K	1754	1776
1086.6 K	–	1776
1086.9 K	1754	–
1087 K	1754	–
1087.1 K	–	1776
1087.6 K	–	1775
1087.7 K	1753	–
1088 K	1753	1775
1088.2 K	1753	–
1088.3 K	1752	–
1088.4 K	–	1775
1088.8 K	1752	1775
1089.2 K	–	1774
1089.3 K	1751	–
1089.6 K	–	1774
1089.7 K	1751	–
1089.9 K	–	1774
1090.4 K	1751	1774
1090.5 K	1751	–
1090.7 K	–	1773
1091 K	1750	–
1091.1 K	–	1773
1091.2 K	1750	–
1091.6 K	–	1772
1091.7 K	1750	–
1092 K	–	1772
1092.2 K	1749	–
1092.3 K	1749	1772
1092.5 K	1748	–
1092.6 K	1748	–
1092.7 K	–	1772
1093.2 K	–	1771
1093.5 K	1747	1771
1093.8 K	1748	–
1093.9 K	–	1771
1094.2 K	1747	–
1094.3 K	–	1771
1094.7 K	–	1770
1094.8 K	1747	–
1094.9 K	1747	–
1095 K	1746	–
1095.1 K	–	1770
1095.3 K	1746	–
1095.5 K	1745	1770
1095.8 K	–	1769
1096.1 K	1745	–
1096.2 K	1745	–
1096.3 K	–	1769
1096.4 K	1744	–
1096.6 K	–	1769
1096.7 K	1744	–
1097 K	–	1769
1097.1 K	1744	–
1097.2 K	1744	–
1097.4 K	–	1768
1097.6 K	1744	–
1097.9 K	–	1768
1098.1 K	1743	1767
1098.3 K	1743	–
1098.5 K	–	1767
1098.6 K	1743	–
1098.8 K	1742	–
1098.9 K	1742	–
1099 K	–	1767
1099.4 K	–	1767
1099.5 K	1742	–
1099.6 K	1742	–
1099.8 K	–	1766
1100.1 K	1741	–
1100.2 K	–	1766
1100.4 K	1741	–
1100.6 K	1741	1766
1100.9 K	1740	1766
1101 K	1741	–
1101.2 K	1740	1765
1101.7 K	1740	1765
1101.8 K	1739	–
1101.9 K	1739	–
1102.1 K	–	1765
1102.4 K	–	1765
1102.5 K	1739	–
1102.9 K	–	1764
1103.4 K	–	1764
1103.6 K	–	1763
1104.1 K	–	1763
1104.5 K	–	1763
1104.8 K	–	1763
1105.2 K	–	1762
1105.7 K	–	1762
1105.9 K	–	1762
1106.4 K	–	1762
1106.7 K	–	1761
1107.3 K	–	1761
1107.7 K	–	1761
1108 K	–	1761
1108.5 K	–	1760
1108.8 K	–	1760
1109.3 K	–	1759
1109.7 K	–	1759
1110.1 K	–	1759
1110.5 K	–	1759
1111 K	–	1758
1111.3 K	–	1758
1111.7 K	–	1758
1112.1 K	–	1757
1112.6 K	–	1757
1112.9 K	–	1757
1113.2 K	–	1757
1113.7 K	–	1756
1114.2 K	–	1756
1114.6 K	–	1755
1114.9 K	–	1755
1115.3 K	–	1755
1115.7 K	–	1754
1116.1 K	–	1754
1116.5 K	–	1754
1117 K	–	1754
1117.4 K	–	1753
1117.8 K	–	1753
1118.3 K	–	1753
1118.7 K	–	1752
1119.2 K	–	1752
1119.4 K	–	1751
1119.9 K	–	1751
1120.3 K	–	1751
1120.6 K	–	1751
1121.2 K	–	1750
1121.5 K	–	1750
1122 K	–	1750
1122.4 K	–	1750
1122.8 K	–	1749
1123.3 K	–	1749
